Assays:
MV-4-11 xenograft tumors = experiment: Intratumoral dATP and ATP pool in MV-4-11 xenograft tumors after single oral dose; assay type: in vivo, rat; settings: 1 and 2 h post-administration, 50 mg/kg and 200 mg/kg single oral dose
Procedure: To determine whether TAS1553 achieved RNR inhibition in an in vivo model, we examined the effect of a single dose of orally administered TAS1553 on intratumoral dATP pool, DNA replication stress, and apoptosis in rats that were subcutaneously implanted with a xenograft of MV-4-11 cell line. […] The decline in the intratumoral dATP pool recovered 4 h after the administration of both doses. We also evaluated the DNA replication stress and apoptosis induction in tumors following TAS1553 administration. Consistent with the modulation of the dATP pool, the single administration of TAS1553 (50 mg/kg or more) caused the phosphorylation of Chk1 at Ser345 1 and 2 h post-administration. Furthermore, TAS1553 administration also led to induction in cleaved PARP and cleaved caspase-3 levels, following to Chk1 phosphorylation (Fig. 4d).
Cells were plated, cultured for 1 day, treated with the compound, and harvested. The collected cells were homogenized with 0.42 mol/L perchloric acid, including IS-dATP at 0.6 μmol/L and IS-ATP at 2.4 μmol/L as internal standards for dATP and ATP, respectively. At each time point, xenograft tumors were excised after single dosing of the test compound. The tissues were homogenized with 0.42 mol/L perchloric acid, including IS-dATP at 3 μmol/L as an internal standard for dATP and ATP. […] The aqueous layer collected after vortex and centrifugation was analyzed by LC-MS/MS. […]

MV-4-11 cells = experiment: Cell proliferation assay (CellTiter-Glo), MV-4-11; assay type: cell-based; settings: Homo sapiens, MV4-11, 72 h; MV-4-11, 3 days exposure
Procedure: (§1) Next, we evaluated both concentration-dependent and time-dependent effects of TAS1553 on the dATP pool in HCC38 and MV-4-11 cell lines using absolute quantification. After 2 h of TAS1553 exposure, there was a concentration-dependent reduction of intracellular dATP pool in both cell lines (Fig. 2c). Furthermore, the intracellular dATP pool was reduced within 30 minutes when treated with TAS1553 at 1 or 10 µmol/L in both cell lines (Fig. 2d), consistent with its inhibitory effect on the protein-protein interaction (Fig. 2a).
Cell proliferation assay was performed as reported previously. Briefly, cells were plated and incubated for 1 day, followed by 3 days of exposure to the compound. After compound exposure, viable cells were detected by using the CellTiter-Glo luminescent cell viability assay (Promega). GI50 values were calculated using the SAS software package. The experiment was performed in triplicates.

Plasma exposure in rats = settings: nude rats
Procedure: First, we analyzed the exposure of TAS1553 when administered orally.
(§2) Next, we evaluated the antitumor activity of a high-dose administration of TAS1553 and cytarabine in rats bearing MV-4-11 xenografts. […] The rats were treated with cytarabine for 5 days at 16 and 32 mg/kg. […] In addition to the hematologic tumor, we evaluated the antitumor activity of TAS1553 in mice implanted with HCC38 cell line as a solid tumor model. […] Finally, TAS1553 was evaluated for its survival benefit in a mouse model. To achieve this, we established mice bone marrow cells harboring the human MLL-AF9 fusion gene, which is known as a driver gene for AML in humans as well as mice[48]. Mice were transplanted with the cells through the tail vein and the treatment with TAS1553 was started 11 days post-implantation.
F344/NJcl-rnu/rnu rats were orally administered with TAS1553 (two animals per group). The plasma samples were collected at each point. TAS1553 concentrations in plasma were measured with the LC-MS/MS.

[1] = tested on: intracellular dNTP pools in HCC38 and MV-4-11 cells; experiment: Measurement of intracellular dNTP/ATP pools by LC-MS/MS; assay type: cell-based, human
Procedure: Next, we examined the RNR inhibitory effect of TAS1553 in cells by measuring dNDP pools which are direct products of RNR. However, all dNDP pools could not be detected using LC-MS/MS due to detection limit. Then we determined whether TAS1553 affected the intracellular dNTP pools as surrogate marker for RNR inhibition in cells. LC-MS/MS could not measure dGTP pool due to masking dGTP peak by ATP, as previously reported; thus, dATP, dCTP and dTTP pools were analyzed. HCC38 and MV-4-11, an acute myelogenous leukemia (AML) cell line, were exposed to TAS1553, and the peak area of each dNTP was determined using cell extracts.
as §1
Cells were plated, cultured for 1 day, treated with the compound, and harvested. The collected cells were homogenized with 0.42 mol/L perchloric acid, including IS-dATP at 0.6 μmol/L and IS-ATP at 2.4 μmol/L as internal standards for dATP and ATP, respectively. At each time point, xenograft tumors were excised after single dosing of the test compound. The tissues were homogenized with 0.42 mol/L perchloric acid, including IS-dATP at 3 μmol/L as an internal standard for dATP and ATP. Subsequently, a dichloromethane solution containing 0.5 N tri-n-octylamine was added to the perchloric acid-soluble fraction obtained by centrifugation. The aqueous layer collected after vortex and centrifugation was analyzed by LC-MS/MS. LC-MS/MS analysis was performed with a prominence HPLC system connected to a LCMS-8040 tandem mass spectrometer with ESI probe (SHIMADZU CORPORATION). […]

HCC38 xenograft = experiment: Antitumor activity in mice bearing HCC38 xenografts; assay type: in vivo, mouse; settings: 100 mg/kg oral once daily for 14 days
Procedure: as §2
For the subcutaneous implantation model of MV-4-11, F344/NJcl-rnu/rnu rats were irradiated with X-ray (4 Gy) to improve the efficiency of xenograft implantation. Two days after X-ray irradiation, MV-4-11 cells suspended in PBS with 50 vol% Matrigel were inoculated into the rats (2 × 10^7 cells/animal). In the mice subcutaneous implantation model, HCC38 cells suspended same as above were inoculated into male BALB/cAJcl-nu/nu mice (1 × 10^7 cells /body). The animals were randomized and administered with the compound for 14 days. Antitumor activity and body weight change were evaluated as previously reported. Dunnett test using the SAS software package in EXSUS (CAC Croit) was used to compare the tumor volume (P < 0.05).

SMILES: Cc1ccc(F)c([C@@H](C)[C@H](NS(=O)(=O)c2ccc(Cl)cc2C(N)=O)c2n[nH]c(=O)o2)c1C [TAS1553, 5-chloro-2-{N-[(1S,2R)-2-(6-fluoro-2,3-dimethylphenyl)-1-(5-oxo-4,5-dihydro-1,3,4-oxadiazol-2-yl)propyl]sulfamoyl}benzamide]
- effect on intratumoral dATP pool (MV-4-11 xenograft tumors): significant reduction
- GI50 (MV-4-11 cells): 393 nM
- plasma concentration after single oral dose (Plasma exposure in rats): dose-dependent rise
- effect on intracellular dATP area ([1]; HCC38 and MV-4-11, 2 h): dramatically reduced
- effect on intracellular dCTP and dTTP areas ([1]; HCC38 and MV-4-11, 2 h): increased
- effect on intracellular ATP pool ([1]; until 2 h, 10 µmol/L): did not affect the intracellular ATP pool remarkably
- T/C ratio (HCC38 xenograft): 40.4%
